In US20230255906A1, “Targeting Serpin B9 in Cancer” (The Brigham and Women`s Hospital, Inc., priority 2020, published 2023):

Each molecule was assayed on B16 melanoma cells (assay: Caspase-3 activity assay (EnzChek Caspase-3 Assay Kit), caspase-3 induction in tumor cells). Conditions: not given.
Assay type: cell-based, mouse
Method in brief: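 B16 melanoma cells exposed to compounds for 24 h, lysed on ice 30 min, and lysate incubated with Z-DEVD-R110 substrate about 30 min at room temperature. Fluorescence read at ~496/520 nm against untreated-cell and no-enzyme controls; caspase-3 induction serves as surrogate for GrB activity from Sb9 inhibition.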
Note: test concentration or dose not given here.

Going from CCn1ccnc1CN(C)C(=O)c1ccc2oc(-c3ccc(C(F)(F)F)cc3)nc2c1 [N-[(1-ethyl-1H-imidazol-2-yl)methyl]-N-methyl-2-[4-(trifluoromethyl)phenyl]-1,3-benzoxazole-5-carboxamide] to O=C(c1ccc2oc(-c3ccc(C(F)(F)F)cc3)nc2c1)N1CC[C@H](O)C1 [(3S)-1-({2-[4-(trifluoromethyl)phenyl]-1,3-benzoxazol-5-yl}carbonyl)-3-pyrrolidinol], the “Ratio of caspase-3 activity to Formula (III)” value (from here on “Ratio of caspase-3 activity”) falls from 0.1566 to 0.1382.

Going from COc1cccc(-c2nc3ccc(C(=O)NCC4CCCCO4)cc3o2)c1 (stereo not drawn) [2-(3-methoxyphenyl)-N-(tetrahydro-2H-pyran-2-ylmethyl)-1,3-benzoxazole-6-carboxamide] to COc1cccc(-c2nc3ccc(C(=O)NCC4CCCO4)cc3o2)c1 (stereo not drawn) [2-(3-methoxyphenyl)-N-(tetrahydro-2-furanylmethyl)-1,3-benzoxazole-6-carboxamide], the “Ratio of caspase-3 activity” value falls from 1.425 to 0.4304.

Compared with CCN1CCN(C(=O)c2ccc3nc(-c4cccc(OC)c4)oc3c2)[C@@H](C)C1=O [(3S)-1-ethyl-4-{[2-(3-methoxyphenyl)-1,3-benzoxazol-6-yl]carbonyl}-3-methyl-2-piperazinone], COc1cccc(-c2nc3ccc(C(=O)N4CCS(=O)(=O)CC4)cc3o2)c1 [6-[(1,1-dioxidothiomorpholin-4-yl)carbonyl]-2-(3-methoxyphenyl)-1,3-benzoxazole] is higher in “Ratio of caspase-3 activity” value: 0.1434 for the first, 0.7081 for the second.

Compared with CCOC(=O)CCNC(=O)c1ccc2oc(-c3cccc(F)c3)nc2c1 [ethyl N-{[2-(3-fluorophenyl)-1,3-benzoxazol-5-yl]carbonyl}-beta-alaninate], O=C(NCCCn1cccn1)c1ccc2oc(-c3cccc(F)c3)nc2c1 [2-(3-fluorophenyl)-N-[3-(1H-pyrazol-1-yl)propyl]-1,3-benzoxazole-5-carboxamide] is higher in “Ratio of caspase-3 activity” value: 0.09329 for the first, 0.9113 for the second.

Compared with O=C(c1ccc2oc(-c3cccc(F)c3)nc2c1)N1CCCCC1CO (stereo not drawn) [(1-{[2-(3-fluorophenyl)-1,3-benzoxazol-5-yl]carbonyl}-2-piperidinyl)methanol], O=C(NC1C=CS(=O)(=O)C1)c1ccc2oc(-c3cccc(F)c3)nc2c1 (stereo not drawn) [N-(1,1-dioxido-2,3-dihydro-3-thienyl)-2-(3-fluorophenyl)-1,3-benzoxazole-5-carboxamide] is lower in “Ratio of caspase-3 activity” value: 1.133 for the first, 0.09701 for the second.

Going from O=C1CN(C(=O)c2ccc3oc(-c4ccc(C(F)(F)F)cc4)nc3c2)CCN1 [4-({2-[4-(trifluoromethyl)phenyl]-1,3-benzoxazol-5-yl}carbonyl)-2-piperazinone] to COCC1CCN(C(=O)c2ccc3oc(-c4ccc(C(F)(F)F)cc4)nc3c2)C1 (stereo not drawn) [5-{[3-(methoxymethyl)-1-pyrrolidinyl]carbonyl}-2-[4-(trifluoromethyl)phenyl]-1,3-benzoxazole], the “Ratio of caspase-3 activity” value falls from 1.698 to 0.1424.

First: COc1cccc(-c2nc3ccc(C(=O)NCC(C)(C)CO)cc3o2)c1 [N-(3-hydroxy-2,2-dimethylpropyl)-2-(3-methoxyphenyl)-1,3-benzoxazole-6-carboxamide]
Second: COc1cccc(-c2nc3ccc(C(=O)NCc4nnn[nH]4)cc3o2)c1 [2-(3-methoxyphenyl)-N-(1H-tetrazol-5-ylmethyl)-1,3-benzoxazole-6-carboxamide]
The “Ratio of caspase-3 activity” value of the first is higher: 0.6716 for the first, 0.3911 for the second.

Going from COc1cccc(-c2nc3ccc(C(=O)N4CCN(Cc5cccnc5)CC4)cc3o2)c1 [2-(3-methoxyphenyl)-6-{[4-(3-pyridinylmethyl)-1-piperazinyl]carbonyl}-1,3-benzoxazole] to O=C(NCc1ccno1)c1ccc2oc(-c3cccc(F)c3)nc2c1 [2-(3-fluorophenyl)-N-(isoxazol-5-ylmethyl)-1,3-benzoxazole-5-carboxamide], the “Ratio of caspase-3 activity” value falls from 0.1411 to 0.09526.

First: Cc1nc(CNC(=O)c2ccc3oc(-c4cccc(F)c4)nc3c2)cs1 [2-(3-fluorophenyl)-N-[(2-methyl-1,3-thiazol-4-yl)methyl]-1,3-benzoxazole-5-carboxamide]
Second: CC(Cn1cncn1)NC(=O)c1ccc2oc(-c3cccc(F)c3)nc2c1 (stereo not drawn) [2-(3-fluorophenyl)-N-[1-methyl-2-(1H-1,2,4-triazol-1-yl)ethyl]-1,3-benzoxazole-5-carboxamide]
The “Ratio of caspase-3 activity” value of the first is lower: 0.09788 for the first, 0.1014 for the second.

Same assay, conditions: relative to compound of Formula (III)

Compared with CC(C)CNC(=O)c1cc2c(cc1O)OCO2 [6-hydroxy-N-(2-methylpropyl)-2H-1,3-benzodioxole-5-carboxamide], O=C(NC1CCCC1)c1cc2c(cc1O)OCO2 [N-cyclopentyl-6-hydroxy-2H-1,3-benzodioxole-5-carboxamide] is lower in “Caspase-3 induction, Normalized to Formula (III) (%)” value: −31.2294% for the first, −61.6444% for the second.

Going from CN(C)c1nc2cccc(C(=O)NC3CCCC3)c2o1 [N-cyclopentyl-2-(dimethylamino)-1,3-benzoxazole-7-carboxamide] to CCN(C)C(=O)c1cccc2nc(N(C)C)oc12 [2-(dimethylamino)-N-ethyl-N-methyl-1,3-benzoxazole-7-carboxamide], the “Caspase-3 induction, Normalized to Formula (III) (%)” value rises from −47.699% to −30.9946%.

Compared with O=C(NC1CCCC1)c1ccc2nc(S)oc2c1 [N-cyclopentyl-2-sulfanyl-1,3-benzoxazole-6-carboxamide], O=C(NC1CCCC1)c1ccc2nc(C3CC3)oc2c1 [N-cyclopentyl-2-cyclopropyl-1,3-benzoxazole-6-carboxamide] is higher in “Caspase-3 induction, Normalized to Formula (III) (%)” value: −81.3264% for the first, −21.5068% for the second.

Compared with COc1cc(C(=O)NCC2CCOCC2)ccc1O [4-hydroxy-3-methoxy-N-[(oxan-4-yl)methyl]benzamide], CCOc1ccc(C(=O)NCC2CCOCC2)cc1O [4-ethoxy-3-hydroxy-N-[(oxan-4-yl)methyl]benzamide] is higher in “Caspase-3 induction, Normalized to Formula (III) (%)” value: −76.3077% for the first, −30.8469% for the second.

Going from COCCCNC(=O)c1cc(OC)c(OC)cc1Br [2-bromo-4,5-dimethoxy-N-(3-methoxypropyl)benzamide] to COc1cc(Br)c(C(=O)NCC(C)C)cc1OC [2-bromo-4,5-dimethoxy-N-(2-methylpropyl)benzamide], the “Caspase-3 induction, Normalized to Formula (III) (%)” value rises from −85.9622% to −58.9646%.

First: CCN(C)C(=O)c1cc(OC)c(OC)cc1Br [2-bromo-N-ethyl-4,5-dimethoxy-N-methylbenzamide]
Second: COc1cc(Br)c(C(=O)NCC2CCOCC2)cc1OC [2-bromo-4,5-dimethoxy-N-[(oxan-4-yl)methyl]benzamide]
The “Caspase-3 induction, Normalized to Formula (III) (%)” value of the first is lower: −74.0106% for the first, −43.6422% for the second.

Going from O=C(NCc1ccccc1)c1ccc2nc(C3CC3)oc2c1 [N-benzyl-2-cyclopropyl-1,3-benzoxazole-6-carboxamide] to O=C(NCc1ccccc1)c1ccc2nc(-c3cc(Cl)cc(Cl)c3)oc2c1 [N-benzyl-2-(3,5-dichlorophenyl)-1,3-benzoxazole-6-carboxamide], the “Caspase-3 induction, Normalized to Formula (III) (%)” value falls from −32.882% to −36.0528%.

Going from O=C(c1ccc2nc(C3CC3)oc2c1)N1CCCC1 [2-cyclopropyl-6-(pyrrolidine-1-carbonyl)-1,3-benzoxazole] to O=C(c1ccc2nc(C3CCCCC3)oc2c1)N1CCCC1 [2-cyclohexyl-6-(pyrrolidine-1-carbonyl)-1,3-benzoxazole], the “Caspase-3 induction, Normalized to Formula (III) (%)” value falls from −27.4144% to −29.7019%.

Going from CCN(C)C(=O)c1cc(O)c(O)cc1C [N-ethyl-4,5-dihydroxy-N,2-dimethylbenzamide] to CCOc1ccc(C(=O)N(C)CC)cc1O [4-ethoxy-N-ethyl-3-hydroxy-N-methylbenzamide], the “Caspase-3 induction, Normalized to Formula (III) (%)” value falls from −33.2116% to −69.889%.

Compared with CN(C)c1nc2c(C(=O)NCc3ccccc3)cccc2o1 [N-benzyl-2-(dimethylamino)-1,3-benzoxazole-4-carboxamide], COc1cc(C(=O)NCc2ccccc2)cc(OC)c1O [N-benzyl-4-hydroxy-3,5-dimethoxybenzamide] is lower in “Caspase-3 induction, Normalized to Formula (III) (%)” value: 61.2163% for the first, −17.7065% for the second.

First: O=C(Cc1ccc2ocnc2c1)NC1CCCC1 [2-(1,3-benzoxazol-5-yl)-N-cyclopentylacetamide]
Second: COCCCNC(=O)Cc1ccc2ocnc2c1 [2-(1,3-benzoxazol-5-yl)-N-(3-methoxypropyl)acetamide]
The “Caspase-3 induction, Normalized to Formula (III) (%)” value of the first is higher: −4.02% for the first, −31.2011% for the second.

First: CCOc1ccc(C(=O)NCC2CCOC2)cc1O (stereo not drawn) [4-ethoxy-3-hydroxy-N-[(oxolan-3-yl)methyl]benzamide]
Second: COc1cc(C(=O)NCC2CCOC2)ccc1OC(C)C (stereo not drawn) [3-methoxy-N-[(oxolan-3-yl)methyl]-4-(propan-2-yloxy)benzamide]
The “Caspase-3 induction, Normalized to Formula (III) (%)” value of the first is lower: −24.9053% for the first, −2.673% for the second.

Compared with O=C(c1ccc2nc(-c3cc(Cl)cc(Cl)c3)oc2c1)N1CCCC1 [2-(3,5-dichlorophenyl)-6-(pyrrolidine-1-carbonyl)-1,3-benzoxazole], CCOc1ccc(C(=O)NC2CCCC2)cc1O [N-cyclopentyl-4-ethoxy-3-hydroxybenzamide] is higher in “Caspase-3 induction, Normalized to Formula (III) (%)” value: −6.23% for the first, 4.1370% for the second.

With CCOc1ccc(C(=O)NCCN(C)C)cc1O [N-[2-(dimethylamino)ethyl]-4-ethoxy-3-hydroxybenzamide] the “Caspase-3 induction, Normalized to Formula (III) (%)” value was −38.5237%.
